Laboratory results reported in patent US7435837B2, “Dihydrobenzofuranyl alkanamine derivatives and methods for using same” (Wyeth, priority 2003, dated 2008).
Counter-ions that a name gives are not always drawn.

Experiments:
[1] = molecular target: T1, human 5-hydroxytryptamine-2C (h5-HT2C) receptor (Homo sapiens, UniProt P28335); assay: [125I]DOI binding to membranes of CHO cells expressing the human 5-HT2C receptor; conditions: [125I]DOI radioligand, CHO cell membranes, room temperature 60 min; read-out: 5-HT2C Affinity Ki
T1 construct: expressed in transfected cells; host or cells: CHO (Chinese Hamster Ovary) cells; membranes
T1 sequence (P28335 33-458): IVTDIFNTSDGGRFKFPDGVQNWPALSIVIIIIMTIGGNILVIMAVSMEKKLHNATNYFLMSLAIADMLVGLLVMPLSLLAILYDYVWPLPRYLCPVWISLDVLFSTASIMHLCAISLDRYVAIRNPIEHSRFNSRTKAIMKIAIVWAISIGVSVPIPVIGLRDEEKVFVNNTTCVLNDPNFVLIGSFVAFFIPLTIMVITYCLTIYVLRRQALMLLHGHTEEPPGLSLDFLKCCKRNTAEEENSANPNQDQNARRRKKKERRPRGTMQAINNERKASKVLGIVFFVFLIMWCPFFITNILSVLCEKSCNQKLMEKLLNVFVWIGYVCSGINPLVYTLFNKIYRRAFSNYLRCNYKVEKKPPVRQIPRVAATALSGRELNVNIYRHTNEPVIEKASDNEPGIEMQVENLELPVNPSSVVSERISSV

human 5-HT2C receptor = molecular target: T2, human 5-HT2C receptor (Homo sapiens, UniProt P28335); assay: 5-HT2C receptor-stimulated calcium mobilization (FLIPR) in CHO cells; assay type: cell-based; conditions: for EC50: calcium mobilization, CHO cells stably expressing human 5-HT2C, read-out: 5-HT2C Function EC50; for Emax: CHO, read-out: 5-HT2C Function Emax (%);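 for all read-outs here: Fluo-3-AM fluorescence read on FLIPR every 1 s, agonist added after 10 baseline reads, response taken as peak minus lowest raw fluorescence count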
T2 sequence (P28335 33-458): T1 sequence (P28335 33-458)

[2] = percentage of the response observed with a maximally effective concentration of 5-HT

melting point | Ki [1] | EC50 (human 5-HT2C receptor) | 5-HT2C Function Emax (%) (human 5-HT2C receptor; [2]) | Emax (human 5-HT2C receptor; [2]) | Structure (SMILES)
218 to 221 °C | – | – | – | – | NCC1Cc2ccc(-c3ccccc3)cc2O1 (racemic) (as salt: hydrobromid) [Example 31, (±)-(6-phenyl-2,3-dihydro-1-benzofuran-2-yl)methanamine]
244 to 247 °C | – | – | – | – | Cc1cccc(C)c1-c1cccc2c1OC(CN)C2 (single isomer, unassigned; (-)) (as salt: hydrochloride) [Example 57, (−)-1-[7-(2,6-dimethylphenyl)-2,3-dihydro-1-benzofuran-2-yl]methanamine]
189 to 190 °C | – | – | – | – | NCC1Cc2cccc(-c3cccc(Cl)c3)c2O1 (single isomer, unassigned; (-)) (as salt: hydrobromid) [Example 67, (−)-1-[7-(3-chlorophenyl)-2,3-dihydro-1-benzofuran-2-yl]methanamine]
156 to 158 °C | – | – | – | – | CN(C)C[C@H]1Cc2cc(F)cc(-c3c(Cl)cccc3Cl)c2O1 (as salt: hydrochloride) [Example 547, (R)-[7-(2,6-dichloro-phenyl)-5-Fluoro-2,3-dihydro-benzofuran-2-ylmethyl]dimethylamine]
229 to 230 °C | – | – | – | – | NCC1Cc2c(cccc2-c2ccccc2)O1 (racemic) (as salt: hydrochloride) [Example 1, (±)-1-(4-phenyl-2,3-dihydro-1-benzofuran-2-yl)methanamine]
> 250 °C (dec.) | – | – | – | – | NCC1Cc2cc(F)cc(-c3ccccc3Cl)c2O1 (racemic) (as salt: hydrochloride) [Example 100, (±)-1-[7-(2-chlorophenyl)-5-fluoro-2,3-dihydro-1-benzofuran-2-yl]methanamine]
254 to 256 °C | – | – | – | – | Cc1cccc(C)c1-c1cccc2c1CC(CN)O2 (racemic) (as salt: hydrochloride) [Example 125, (±)-1-[4-(2,6-dimethylphenyl)-2,3-dihydro-1-benzofuran-2-yl]methanamine]
227 to 230 °C | – | – | – | – | Cc1ccccc1-c1cc(F)cc2c1OC(CN)C2 (single isomer, unassigned; (+)) (as salt: hydrochloride) [Example 105, (+)-1-[5-fluoro-7-(2-methylphenyl)-2,3-dihydro-1-benzofuran-2-yl]methanamine]
> 225 °C | – | – | – | – | NCC1Cc2cccc(-c3c(Cl)cc(Cl)cc3Cl)c2O1 (racemic) (as salt: hydrochloride) [Example 166, (±)-{[7-(2,4,6-trichlorophenyl)-2,3-dihydro-1-benzofuran-2-yl]methyl}amine]
212 to 213 °C | – | – | – | – | NCCC1Cc2cc(F)cc(-c3c(Cl)cccc3Cl)c2O1 (racemic) (as salt: hydrochloride) [Example 553, (±)-{2-[7-(2,6-dichlorophenyl)-5-fluoro-2,3-dihydro-1-benzofuran-2-yl]ethyl}amine]
219 to 222 °C | – | – | – | – | NCC1Cc2cccc(-c3c(F)cccc3F)c2O1 (racemic) (as salt: hydrochloride) [Example 139, (±)-1-[7-(2,6-difluorophenyl)-2,3-dihydro-1-benzofuran-2-yl]methanamine]
165 to 168 °C | – | – | – | – | NCC1Cc2cccc(-c3cc(Cl)cc(Cl)c3)c2O1 (racemic) (as salt: hydrochloride) [Example 35, (±)-1-[7-(3,5-dichlorophenyl)-2,3-dihydro-1-benzofuran-2-yl]methanamine]
156 to 158 °C | – | – | – | – | COc1cccc(-c2cccc3c2OC(CN)C3)c1 (single isomer, unassigned; (+)) (as salt: hydrochloride) [Example 133, (+)-1-[7-(3-methoxyphenyl)-2,3-dihydro-1-benzofuran-2-yl]methanamine]
120 to 124 °C | – | – | – | – | NCC1Cc2cccc(-c3cccc4ccccc34)c2O1 (racemic) (as salt: hydrochloride) [Example 33, (±)-1-[7-(1-naphthyl)-2,3-dihydro-1-benzofuran-2-yl]methanamine]
196 to 198 °C | – | – | – | – | Cc1cccc(-c2cccc3c2OC(CN)C3)c1 (single isomer, unassigned; (+)) (as salt: hydrochloride) [Example 42, (+)-1-[7-(3-methylphenyl)-2,3-dihydro-1-benzofuran-2-yl]methanamine]
231 to 234 °C | – | – | – | – | Cc1ccccc1-c1cccc2c1CC(CN)O2 (racemic) (as salt: hydrochloride) [Example 4, (±)-1-[4-(2-methylphenyl)-2,3-dihydro-1-benzofuran-2-yl]methanamine]

melting point | Ki [1] | EC50 (human 5-HT2C receptor) | 5-HT2C Function Emax (%) (human 5-HT2C receptor; [2]) | Emax (human 5-HT2C receptor; [2]) | Structure (SMILES)
150 to 154 °C | – | – | – | – | NCC1Cc2cccc(-c3cccc(Cl)c3)c2O1 (racemic) (as salt: hydrochloride) [Example 65, (±)-1-[7-(3-chlorophenyl)-2,3-dihydro-1-benzofuran-2-yl]methanamine]
195 to 198 °C | – | – | – | – | COc1cc(Cl)cc2c1OC(CN)C2 (racemic) (as salt: hydrochloride) [Example 111, (±)-1-(5-chloro-7-methoxy-2,3-dihydro-1-benzofuran-2-yl)methanamine]
– | 1.5 nM | 34 nM | 90% | – | NCC1Cc2cccc(-c3cccc(F)c3)c2O1 (single isomer, unassigned; (+)) [Example 131, (+)-1-[7-(3-fluorophenyl)-2,3-dihydro-1-benzofuran-2-yl]methanamine]
– | 1.1 nM | 59 nM | – | 80% | CNCC1Cc2cccc(-c3ccc(C)cc3)c2O1 (racemic) [Example 418, (±)-[(N-methyl-1-[7-(4-methylphenyl)-2,3-dihydro-1-benzofuran-2-yl]methanamine]
– | 3 nM | 25 nM | – | 90% | NCC1Cc2cccc(-c3ccc(Cl)cc3)c2O1 (racemic) [Example 76, (±)-1-[7-(4-chlorophenyl)-2,3-dihydro-1-benzofuran-2-yl]methanamine]
– | 21.5 nM | 45 nM | – | 60% | CC(C)NCC1Cc2cccc(-c3c(Cl)cccc3Cl)c2O1 (racemic) [Example 393, (±)-N-{[7-(2,6-dichlorophenyl)-2,3-dihydro-1-benzofuran-2-yl]methyl}propan-2-amine]
– | 0.35 nM | 2 nM | – | 100% | CNCC1Cc2cc(OC)cc(-c3c(C)cccc3C)c2O1 (single isomer, unassigned; (-)) [Example 560, (−)-{[7-(2,6-dimethylphenyl)-5-methoxy-2,3-dihydro-1-benzofuran-2-yl]methyl}methylamine]
– | 18 nM | 120 nM | – | 80% | Cc1ccc(C)c(-c2cc(F)cc3c2OC(CN)C3)c1 (racemic) [Example 222, (±)-{[7-(2,5-dimethylphenyl)-5-fluoro-2,3-dihydro-1-benzofuran-2-yl]methyl}amine]
– | 18 nM | 42 nM | – | 90% | Cc1ccccc1-c1cc(C(F)(F)F)cc2c1OC(CN)C2 (racemic) [Example 314, (±)-{[5-(trifluoromethyl)-7-(2-methylphenyl)-2,3-dihydro-1-benzofuran-2-yl]methyl}amine]
– | 1.4 nM | 4 nM | – | 90% | COc1cc2c(c(-c3cc(Cl)ccc3Cl)c1)OC(CN)C2 (single isomer, unassigned; (+)) [Example 368, (+)-{[7-(2,5-dichlorophenyl)-5-methoxy-2,3-dihydro-1-benzofuran-2-yl]methyl}amine]
– | 0.3 nM | 2.4 nM | – | 100% | Cc1ccccc1-c1cccc2c1OC(CN)C2 (single isomer, unassigned; (+)) [Example 48, (+)-1-[7-(2-methylphenyl)-2,3-dihydro-1-benzofuran-2-yl]methanamine]
– | 6.3 nM | 1 nM | – | 90% | COc1ccc(-c2cccc3c2OC(CN)C3)c(OC)c1 (racemic) [Example 143, (±)-1-[7-(2,4-dimethoxyphenyl)-2,3-dihydro-1-benzofuran-2-yl]methanamine]
– | 0.48 nM | 2 nM | – | 90% | CNCC1Cc2cc(Cl)cc(-c3cc(Cl)ccc3Cl)c2O1 (single isomer, unassigned; (+)) [Example 562, (+)-{[5-chloro-7-(2,5-dichlorophenyl)-2,3-dihydro-1-benzofuran-2-yl]methyl}methylamine]
– | 1.6 nM | 467 nM | – | 70% | CNCC1Cc2cccc(-c3cccc(Cl)c3)c2O1 (racemic) [Example 416, (±)-[(N-methyl-1-[7-(3-chlorophenyl)-2,3-dihydro-1-benzofuran-2-yl]methanamine]
– | 0.15 nM | 0.97 nM | – | 100% | NCC1Cc2cccc(-c3ccc(Cl)cc3Cl)c2O1 (single isomer, unassigned; (-)) [Example 149, (−)-1-[7-(2,4-dichlorophenyl)-2,3-dihydro-1-benzofuran-2-yl]methanamine]
– | 1.8 nM | 2 nM | – | 80% | CCNCC1Cc2cccc(-c3c(Cl)cccc3Cl)c2O1 (racemic) [Example 390, (±)-N-{[7-(2,6-dichlorophenyl)-2,3-dihydro-1-benzofuran-2-yl]methyl}ethanamine]
